Where two headings read alike, the source gives them in different places.
Key:
Burkhloderia multivorans = assay: MIC determination against Burkhloderia multivorans; assay type: cell-based
Description: (§1) In the following experiments, bacterial cells were cultured in 96-well microtiter plates in cation-adjusted Mueller-Hinton Broth (MHB) for 18 h at 37° C. The main strains used were E. coli (K-12 BW25113) (placed in stationary incubator) and S. aureus (Newman Strain) (incubated at 250 r.p.m). Knockout strains (ΔtolcC and ΔychM) were used from the Keio knockout collection (Baba et al., Construction of Escherichia coli K-12 in-frame, single-gene knockout mutants: the Keio collection. Mol Syst Biol 2, 2006 0008, doi:10.1038/msb4100050 (2006)). For MIC determination and checkerboard analyses, Clinical & Laboratory Standards Institute (CLSI) protocol was used. […] DiSC3 loading of S. aureus cells was performed as previously described (Farha et al., Collapsing the proton motive force to identify synergistic combinations against Staphylococcus aureus. Chemistry & biology 20, 1168-1178, doi:10.1016/j.chembiol.2013.07.006 (2013)). CCCP concentration of 20 μM was used. pH adjustments were made by addition of HCl or NaOH. INT assay and ATP bioluminescence assays were performed as previously described (Farha et al., Collapsing the proton motive force to identify synergistic combinations against Staphylococcus aureus. Chemistry & biology 20, 1168-1178, doi:10.1016/j.chembiol.2013.07.006 (2013)). […]

S. aureus [1] = assay: microbe, parasite or virus in culture; conditions: for MIC: Staphylococcus aureus; for MIC, S. aureus, MHB−: MHB in the absence of sodium bicarbonate; for MIC, S. aureus, MHB+: MHB in the presence of 25 mM sodium bicarbonate
Enterococcus faecalis = assay: MIC determination against Enterococcus faecalis; assay type: cell-based
E. coli [2] = assay: microbe, parasite or virus in culture; assay type: cell-based, Escherichia coli
Klebsiella pneumoniae = assay: MIC determination against Klebsiella pneumoniae; assay type: cell-based
Description: (§2) In the following experiments, bacterial cells were cultured in 96-well microtiter plates in cation-adjusted Mueller-Hinton Broth (MHB) for 18 h at 37° C. The main strains used were E. coli (K-12 BW25113) (placed in stationary incubator) and S. aureus (Newman Strain) (incubated at 250 r.p.m). Knockout strains (ΔtolcC and ΔychM) were used from the Keio knockout collection (Baba et al., Construction of Escherichia coli K-12 in-frame, single-gene knockout mutants: the Keio collection. Mol Syst Biol 2, 2006 0008, doi:10.1038/msb4100050 (2006)). For MIC determination and checkerboard analyses, Clinical & Laboratory Standards Institute (CLSI) protocol was used. […] DiSC3 loading of S. aureus cells was performed as previously described (Farha et al., Collapsing the proton motive force to identify synergistic combinations against Staphylococcus aureus. Chemistry & biology 20, 1168-1178, doi:10.1016/j.chembiol.2013.07.006 (2013)). CCCP concentration of 20 μM was used. pH adjustments were made by addition of HCl or NaOH. INT assay and ATP bioluminescence assays were performed as previously described (Farha et al., Collapsing the proton motive force to identify synergistic combinations against Staphylococcus aureus. Chemistry & biology 20, 1168-1178, doi:10.1016/j.chembiol.2013.07.006 (2013)). For chemical-genomic studies, the Keio library was grown overnight in cation-adjusted MHB broth, in 384-well plates. From these, treatment plates (25 mM sodium bicarbonate, or a sterile water control) were inoculated and grown for 15 hours at 37° C., in a stationary incubator. Data was normalized according to Mangat et al (Mangat et al., Rank ordering plate data facilitates data visualization and normalization in high-throughput screening. J Biomol Screen 19, 1314-1320, doi:10.1177/1087057114534298 (2014)), with gene products and GO terms mined from EcoCyc. […]

E. coli [3] = assay: Checkerboard microdilution with sodium bicarbonate against E. coli; assay type: cell-based, Escherichia coli
Description: (§3) In the following experiments, bacterial cells were cultured in 96-well microtiter plates in cation-adjusted Mueller-Hinton Broth (MHB) for 18 h at 37° C. The main strains used were E. coli (K-12 BW25113) (placed in stationary incubator) and S. aureus (Newman Strain) (incubated at 250 r.p.m). Knockout strains (ΔtolcC and ΔychM) were used from the Keio knockout collection (Baba et al., Construction of Escherichia coli K-12 in-frame, single-gene knockout mutants: the Keio collection. Mol Syst Biol 2, 2006 0008, doi:10.1038/msb4100050 (2006)). For MIC determination and checkerboard analyses, Clinical & Laboratory Standards Institute (CLSI) protocol was used. […] DiSC3 loading of S. aureus cells was performed as previously described (Farha et al., Collapsing the proton motive force to identify synergistic combinations against Staphylococcus aureus. Chemistry & biology 20, 1168-1178, doi:10.1016/j.chembiol.2013.07.006 (2013)). CCCP concentration of 20 μM was used. pH adjustments were made by addition of HCl or NaOH. INT assay and ATP bioluminescence assays were performed as previously described (Farha et al., Collapsing the proton motive force to identify synergistic combinations against Staphylococcus aureus. Chemistry & biology 20, 1168-1178, doi:10.1016/j.chembiol.2013.07.006 (2013)). For chemical-genomic studies, the Keio library was grown overnight in cation-adjusted MHB broth, in 384-well plates. From these, treatment plates (25 mM sodium bicarbonate, or a sterile water control) were inoculated and grown for 15 hours at 37° C., in a stationary incubator. Data was normalized according to Mangat et al (Mangat et al., Rank ordering plate data facilitates data visualization and normalization in high-throughput screening. J Biomol Screen 19, 1314-1320, doi:10.1177/1087057114534298 (2014)), with gene products and GO terms mined from EcoCyc. The GFP promoter library (Keseler et al., EcoCyc: fusing model organism databases with systems biology. Nucleic Acids Res 41, D605-612, doi:10.1093/nar/gks1027 (2013)) was grown for 18 hours at ambient temperature with the same inoculation strategy as with the Keio collection. The analysis pipeline of Zaslaver et al (Zaslaver et al., A comprehensive library of fluorescent transcriptional reporters for Escherichia coli. Nat Methods 3, 623-628, doi:10.1038/nmeth895 (2006)) was used to generate maps of promoter activity, from which lists of promoters with increased or decreased activity were compiled.
(§4) The effect of sodium bicarbonate on the activity of various antibacterial agents was investigated. Clinical isolates of various bacteria were obtained from the American Type Culture Collection (“ATCC”) and the International Health Management Associates (“IHMA”). Fractional inhibitory concentration indices (FICIs) were determined by setting up standard checkerboard broth microdilution assays in 96-well microtiter plates with serially diluted 8 (or 10) concentrations of each drug (sodium bicarbonate and the antibacterial agent). The protocol for checkerboard analyses was based on the CLSI guidelines. Plates were incubated at 37° C. for 18 hours, and optical density was read at 600 nm. At least 3 replicates were done for each query compound.
(§5) The FIC index (FICI) is the sum of the two FICs. Chemical-chemical interactions with ΣFIC of less or equal to 0.5 were deemed synergistic.
(§6) As validation, three of the antibiotic agents were further tested with checkerboard analyses. Checkerboard broth microdilution assays were set up in 96-well microtiter plates with serially diluted 8 (or 10) concentrations of each compound (sodium bicarbonate and the antibiotic). The protocol for checkerboard analyses was based on the CLSI guidelines. Plates were incubated at 37° C. for 18 hours, and optical density was read at 600 nm. At least 3 replicates were done for each query compound.

Acinetobacter baumannii = assay: MIC determination against Acinetobacter baumannii; assay type: cell-based; conditions: for MIC: Acinetobacter baumannii
Description: as §3

Pseudomonas aeruginosa = assay: MIC determination against Pseudomonas aeruginosa; assay type: cell-based
Description: as §2

Burkhloderia cenocepacia = assay: MIC determination against Burkhloderia cenocepacia; assay type: cell-based
Description: as §1

[4] = Description: PMF is driven in part by a transmembrane gradient where the periplasmic side of the membrane has a greater concentration of protons. Thus, the addition of buffering agents to alter the external pH can have a significant effect on PMF. […] Steps were taken throughout the studies to confirm that bicarbonate supplemented media were at pH 7.4, and adjusted where necessary.
E. coli [5] = assay: Gentamicin potency analysis with CCCP pre-treatment; assay type: cell-based, Escherichia coli; conditions: 25 mM sodium bicarbonate, CCCP pre-treated cells
Description: In the following experiments, bacterial cells were cultured in 96-well microtiter plates in cation-adjusted Mueller-Hinton Broth (MHB) for 18 h at 37° C. The main strains used were E. coli (K-12 BW25113) (placed in stationary incubator) and S. aureus (Newman Strain) (incubated at 250 r.p.m). […] For MIC determination and checkerboard analyses, Clinical & Laboratory Standards Institute (CLSI) protocol was used. […] DiSC3 loading of S. aureus cells was performed as previously described (Farha et al., Collapsing the proton motive force to identify synergistic combinations against Staphylococcus aureus. Chemistry & biology 20, 1168-1178, doi:10.1016/j.chembiol.2013.07.006 (2013)). CCCP concentration of 20 μM was used. pH adjustments were made by addition of HCl or NaOH. INT assay and ATP bioluminescence assays were performed as previously described (Farha et al., Collapsing the proton motive force to identify synergistic combinations against Staphylococcus aureus. Chemistry & biology 20, 1168-1178, doi:10.1016/j.chembiol.2013.07.006 (2013)). For chemical-genomic studies, the Keio library was grown overnight in cation-adjusted MHB broth, in 384-well plates. […]

S. aureus [6] = assay: Checkerboard microdilution with sodium bicarbonate against S. aureus; assay type: cell-based, Staphylococcus aureus
Description: as §3, §4, §5, §6

[7] = read-out: MIC, tissue culture media formulated to mimic the natural environment
[8] = antibiotic agents, fold shift in MIC, MHB− vs MHB+

For `N=C(N)c1ccc(OCCCCCOc2ccc(C(=N)N)cc2)cc1` [pentamidine isethionate], which MIC (Burkhloderia multivorans; read-out: MIC, MHB) is on record?
Its MIC is greater than 200 µg/mL.

What about the MIC (Burkhloderia multivorans; [7]) of the same compound?
Its MIC is 12.5 µg/mL.

What about the MIC (S. aureus [1]; read-out: MIC, MHB) of the same compound?
The MIC was 12.5 µg/mL.

What about the MIC (S. aureus [1]; [7]) of the same compound?
The MIC was less than 0.1 µg/mL.

And the MIC (Enterococcus faecalis; read-out: MIC, MHB)?
The MIC was 25 µg/mL.

What about the MIC (Enterococcus faecalis; [7]) of the same compound?
The MIC was 3.1 µg/mL.

What about the “MIC, tissue culture media formulated to mimic the natural environment” value (E. coli [2]; Escherichia coli) of the same compound?
Its value is 1.5 µg/mL.

What about the MIC (E. coli [2]; Escherichia coli, Mueller Hinton Broth, read-out: MIC, MHB) of the same compound?
Its MIC is 200 µg/mL.

And the MIC (E. coli [2]; Escherichia coli, read-out: MIC, tissue culture media formulated to mimic the natural environment)?
The MIC was 1 µg/mL.

And the MIC (Klebsiella pneumoniae; read-out: MIC, MHB)?
Its MIC is greater than 200 µg/mL.

What about the MIC (Klebsiella pneumoniae; [7]) of the same compound?
The MIC was 12.5 µg/mL.

What about the “interaction with sodium bicarbonate (checkerboard)” value (E. coli [3]) of the same compound?
Its value is “greatly potentiated”.

What about the “enhanced potency in tissue culture media formulated to mimic the natural environment” value (Acinetobacter baumannii; A. baumannii, versus standard media) of the same compound?
Its value is greater than 50 fold.

What about the MIC (Acinetobacter baumannii; read-out: MIC, MHB) of the same compound?
The MIC was 100 µg/mL.

And the MIC (Acinetobacter baumannii; [7])?
Its MIC is 12.5 µg/mL.

What about the MIC (Pseudomonas aeruginosa; read-out: MIC, MHB) of the same compound?
Its MIC is greater than 200 µg/mL.

And the MIC (Pseudomonas aeruginosa; [7])?
Its MIC is 12.5 µg/mL.

And the MIC (Burkhloderia cenocepacia; read-out: MIC, MHB)?
Its MIC is greater than 200 µg/mL.

What about the MIC (Burkhloderia cenocepacia; [7]) of the same compound?
Its MIC is 12.5 µg/mL.

Which results are given for `O=P([O-])([O-])[O-].[Na+].[Na+].[Na+]` [trisodium phosphate]?
effect on activity of dirithromycin, pH not adjusted ([4]; pH not adjusted (pH~10)): potentiated the activity of dirithromycin; effect on activity of dirithromycin, pH adjusted ([4]; pH of the medium adjusted to 7.2): loss of synergy

Which “Fold, S. aureus” value (S. aureus [1]) does the source give for Gentamicin here?
Its value is 2.

And the “MIC, S. aureus, MHB−” value (S. aureus [1])?
Its value is 2.

And the “MIC, S. aureus, MHB+” value (S. aureus [1])?
Its value is 1.

What about the “Fold, E. coli” value (E. coli [2]) of the same compound?
Its value is 8.

And the “effect of CCCP pre-incubation on potentiation by sodium bicarbonate” value (E. coli [5])?
The value was “reversed the potentiation”.

What does the source list for Spiramycin?
MIC, S. aureus, MHB− (S. aureus [1]; antibiotic agents): 16 μg of antimicrobial agent/mL of buffer; MIC, S. aureus, MHB+ (S. aureus [1]; antibiotic agents): 0.5 μg of antimicrobial agent/mL of buffer; Fold, S. aureus (S. aureus [1]; [8]): 16; MIC, E. coli, MHB+ (E. coli [2]): 64 μg of antimicrobial agent/mL of buffer; MIC, E. coli, MHB− (E. coli [2]; antibiotic agents, MHB in the absence of sodium bicarbonate): >128 μg of antimicrobial agent/mL of buffer; Fold, E. coli (E. coli [2]; [8]): 8; interaction with sodium bicarbonate (checkerboard) (E. coli [3]): synergistic interactions; interaction with sodium bicarbonate (checkerboard) (S. aureus [6]): synergistic interactions

From US11400106B2, “Methods for inhibiting microbe growth” (priority 2018, dated 2022)
